Series [1] can be described thus: AUClast in rat at 2 mg/kg, po. Particulars: in vivo. Type of series: ADME, organism-based. Also noted: time 0 - last, dose 2 mg/kg, route po.
Series [2] can be described thus: Drug concentration in rat at 2 mg/kg, po measured after 24 hrs. Particulars: in vivo; for concentration at 24 h: read-out: Drug uptake; for Drug uptake: po, 2 mg/kg, 24 h, BLD = below limit of detection. Format: ADME, organism-based.
Series [3] is described as follows: Volume of distribution at steady state in rat at 2 mg/kg, po or 0.5 mg/kg, iv. Particulars: in vivo. Type of series: ADME, organism-based.
Series [4] is described as follows: Volume of distribution at steady state in dog at 1 mg/kg, po or 0.5 mg/kg, iv. Type of series: ADME, organism-based, Canis lupus familiaris. Particulars: in vivo.
Series [5] can be described thus: Volume of distribution at steady state in cynomolgus monkey at 1 mg/kg, po or 0.5 mg/kg, iv. Format: ADME, organism-based, Macaca fascicularis. Particulars: in vivo.
The nature of series [6]: Oral bioavailability in rat at 2 mg/kg. Format: ADME, organism-based. Particulars: in vivo.
Series [7] can be described thus: Oral bioavailability in dog at 1 mg/kg. Particulars: in vivo. Type of series: ADME, organism-based, Canis lupus familiaris.
A short description of series [8]: Oral bioavailability in cynomolgus monkey at 1 mg/kg. Type of series: ADME, organism-based, Macaca fascicularis. Particulars: in vivo.

From ChEMBL document CHEMBL5143717 (J Med Chem, 2022) come the findings set out here.

Each structure is given as a SMILES string.

Usually AUC(0-t) stands for the area under the concentration-time curve up to a stated or last time point. By bioavailability is commonly meant the share of a dose that reaches the circulation, judged against a reference dose that is usually intravenous.

Compound `COc1cc(OCc2cccc(-c3ccc(OC)nc3)c2)c2cc(-c3cn4nc(OC)sc4n3)oc2c1` had an exposure AUC(0-t) in series [1] of 3.5 µM·h. In addition, the concentration at 24 h in series [2] came out at 19 nM.

In turn, `COc1cc(OCc2csc(-c3ccc(C(=O)N4CCCC4)cc3)n2)c2cc(-c3cn4nc(OC)sc4n3)oc2c1` displayed an AUC(0-t) in series [1] of 3 µM·h. In series [2], the concentration at 24 h was determined as 4.7 nM.

In series [1], `COc1cc(OCc2csc(N3CCCCC3)n2)c2cc(-c3cn4nc(OC)sc4n3)oc2c1` had an AUC(0-t) of 21.6 µM·h. Also, the concentration at 24 h in series [2] came to 340 nM.

The compound `COc1cc(OCc2cc(C(F)(F)F)ccc2C)c2cc(-c3cn4nc(OC)sc4n3)oc2c1` showed an AUC(0-t) in series [1] of 1.9 µM·h. In series [2], the concentration at 24 h worked out at 12 nM.

In the case of `COc1cc(OCc2csc(-c3ccc(C(C)(C)O)cc3)n2)c2cc(-c3cn4nc(OC)sc4n3)oc2c1`, the area under the curve AUC(0-t) in series [1] was 0.92 µM·h. For the same compound, the concentration at 24 h in series [2] was found to be 6.7 nM.

`COc1cc(OCc2cccc(-c3ccoc3)c2)c2cc(-c3cn4nc(OC)sc4n3)oc2c1` displayed an AUC(0-t) in series [1] of 10.9 µM·h. The concentration at 24 h in series [2] was 140 nM.

For the compound `COc1cc(OCc2ccccc2)c2cc(-c3cn4nc(OC)sc4n3)oc2c1`, the AUC(0-t) in series [1] came out at 5.5 µM·h. Further, the concentration at 24 h in series [2] is 46 nM.

In turn, `COc1cc(OCc2cccc(-c3ccc(C(F)(F)F)cn3)c2)c2cc(-c3cn4nc(OC)sc4n3)oc2c1` came in with an AUC(0-t) in series [1] of 0.83 µM·h. Besides, in series [2], the Drug uptake result is “Bld”.

`COc1cc(OCc2ccnc(-c3ccccc3)n2)c2cc(-c3cn4nc(OC)sc4n3)oc2c1` displayed an exposure AUC(0-t) in series [1] of 7.4 µM·h. Further, the concentration at 24 h in series [2] was 94 nM.

Regarding `CNC(=O)c1ccc(-c2nc(COc3cc(OC)cc4oc(-c5cn6nc(OC)sc6n5)cc34)cs2)cc1`, in series [1], the AUC(0-t) is 0.04 µM·h. Also, in series [2], the Drug uptake result was “Bld”.

In series [1], `COc1cc(OCc2cccc(-c3ccc(C#N)cn3)c2)c2cc(-c3cn4nc(OC)sc4n3)oc2c1` had an AUC(0-t) of 0.91 µM·h. In addition, the concentration at 24 h in series [2] is 13 nM.

In turn, `COc1cc(OCc2coc(N3CCOCC3)n2)c2cc(-c3cn4nc(OC)sc4n3)oc2c1` registered an AUC(0-t) in series [1] of 13.1 µM·h. Also, the concentration at 24 h in series [2] worked out at 69 nM.

As to `COc1cc(OCc2csc(N3CCCOCC3)n2)c2cc(-c3cn4nc(OC)sc4n3)oc2c1`, in series [1], the AUC(0-t) amounted to 5 µM·h. In addition, the concentration at 24 h in series [2] is 49 nM.

Turning to `COc1cc(OCc2csc(-c3ccc(C(F)(F)F)cc3)n2)c2cc(-c3cn4nc(OC)sc4n3)oc2c1`, in series [1], the AUC(0-t) was determined as 1.3 µM·h. The concentration at 24 h in series [2] is 9 nM.

With `COc1cc(OCc2nc(N3CCOCC3)sc2C(F)(F)F)c2cc(-c3cn4nc(OC)sc4n3)oc2c1`, in series [1], the exposure AUC(0-t) was found to be 2.4 µM·h. Moreover, in series [2], the concentration at 24 h came to 14 nM.

With `COc1cc(OCc2cccc(OCc3ccccc3)c2)c2cc(-c3cn4nc(OC)sc4n3)oc2c1`, the AUC(0-t) in series [1] is 0.66 µM·h. In addition, the concentration at 24 h in series [2] came to 3 nM.

As to `COc1cc(OCc2csc(-c3ccc(C(N)=O)cc3)n2)c2cc(-c3cn4nc(OC)sc4n3)oc2c1`, in series [2], the Drug uptake entry was “Bld”.

With `COc1cc(OCc2csc(-c3ccc(C(=O)N4CCC(F)(F)C4)cc3)n2)c2cc(-c3cn4nc(OC)sc4n3)oc2c1`, the exposure AUC(0-t) in series [1] turned out to be 0.58 µM·h. Further, the concentration at 24 h in series [2] was 1.8 nM.

Take `COc1cc(OCc2csc(N3CC4CCC(C3)O4)n2)c2cc(-c3cn4nc(OC)sc4n3)oc2c1`: in series [1], the AUC(0-t) was 1.9 µM·h. Also, the concentration at 24 h in series [2] came out at 12 nM.

Regarding `COc1cc(OCc2ccnc(N3CCOCC3)n2)c2cc(-c3cn4nc(OC)sc4n3)oc2c1`, in series [1], the AUC(0-t) worked out at 7.5 µM·h. Further, the concentration at 24 h in series [2] came to 86 nM.

`COc1cc(OCc2cccc(-c3ccc(C#N)cc3)c2)c2cc(-c3cn4nc(OC)sc4n3)oc2c1` showed an AUC(0-t) in series [1] of 1.2 µM·h. Moreover, in series [2], the concentration at 24 h came to 13 nM.

Take `COc1cc(OCc2csc(N3CCN(C)CC3)n2)c2cc(-c3cn4nc(OC)sc4n3)oc2c1`: the AUC(0-t) in series [1] came out at 1.8 µM·h. Moreover, the concentration at 24 h in series [2] came out at 5 nM.

`COc1cc(OCc2cccc(-c3cnc(OC)nc3)c2)c2cc(-c3cn4nc(OC)sc4n3)oc2c1` returned an AUC(0-t) in series [1] of 2 µM·h. Moreover, in series [2], the concentration at 24 h worked out at 29 nM.

Turning to `COc1cc(OCc2csc(C3CCOCC3)n2)c2cc(-c3cn4nc(OC)sc4n3)oc2c1`, the AUC(0-t) in series [1] turned out to be 3.7 µM·h. Further, in series [2], the concentration at 24 h was found to be 28 nM.

In the case of `COc1cc(OCc2csc(C3CCC(F)(F)CC3)n2)c2cc(-c3cn4nc(OC)sc4n3)oc2c1`, in series [1], the exposure AUC(0-t) came out at 0.8 µM·h. Moreover, the concentration at 24 h in series [2] was found to be 21 nM.

Take `COc1cc(OCc2csc(-c3ccc(S(C)(=O)=O)cc3)n2)c2cc(-c3cn4nc(OC)sc4n3)oc2c1`: in series [1], the AUC(0-t) was determined as 0.26 µM·h. Besides, in series [2], the concentration at 24 h came out at 2 nM.

In series [1], `COc1cc(OCc2cccc(N3CCOCC3)n2)c2cc(-c3cn4nc(OC)sc4n3)oc2c1` returned an exposure AUC(0-t) of 7.3 µM·h. Besides, the concentration at 24 h in series [2] is 93 nM.

As to `COc1cc(OCc2csc(-c3ccccc3)n2)c2cc(-c3cn4nc(OC)sc4n3)oc2c1`, in series [1], the AUC(0-t) was 8 µM·h. The concentration at 24 h in series [2] came to 89 nM.

`COc1ccc(-c2cccc(COc3cc(OC)cc4oc(-c5cn6nc(OC)sc6n5)cc34)c2)nc1`: in series [1], the AUC(0-t) came to 3.3 µM·h. Besides, the concentration at 24 h in series [2] stood at 22 nM.

`COc1cc(OCc2csc(-c3ccc(C(=O)N(C)C)cc3)n2)c2cc(-c3cn4nc(OC)sc4n3)oc2c1` [BMS-986141] gave an AUClast in series [1] of 3.1 µM·h. In addition, the concentration at 24 h in series [2] amounted to 4.7 nM. For the same compound, the Vdss in series [3] turned out to be 2.7 L/kg; in series [4] it was 2.7 L/kg; in series [5] it was 14 L/kg. The F in series [6] is on record as 31%. For the same compound, the results for the bioavailability in series [7] and in series [8] were 25% and 36%, respectively.

In turn, `COc1cc(OCc2nc(N3CCOCC3)sc2C)c2cc(-c3cn4nc(OC)sc4n3)oc2c1` came in with an AUClast in series [1] of 23.7 µM·h. The concentration at 24 h in series [2] is 230 nM. Further, the Vdss worked out at 1.4 L/kg in series [3], 5.9 L/kg in series [4] and 11 L/kg in series [5]. In addition, the F in series [6] worked out at 21%. In addition, the bioavailability in series [7] was found to be 19%; in series [8], 26%.

`COc1cc(OCc2cccc(-c3cnc(OC)cn3)c2)c2cc(-c3cn4nc(OC)sc4n3)oc2c1` displayed an exposure AUC(0-t) in series [1] of 1.4 µM·h. The concentration at 24 h in series [2] came out at 7.7 nM.

Regarding `COc1cc(OCc2csc(N3CCOCC3)n2)c2cc(-c3cn4nc(OC)sc4n3)oc2c1`, in series [1], the exposure AUC(0-t) came out at 16.2 µM·h. The concentration at 24 h in series [2] was determined as 240 nM.
